Read-outs that look alike come from different tables or passages of the source.

Format in all cases: cell-based
The subject of assay [1] is KRAS-G12D mutant tumor cells AGS. The assay can be described thus: Cell Proliferation Inhibition Assay (AGS), Cell-titer GLO, 96 h. Conditions: Homo sapiens, AGS, 96 h, read-out: AGS(G12D). The gist of the method: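 AGS cells (KRAS-G12D) grown in low-attachment plates were exposed to compound for 96 h at 37°C. Viability was read by CellTiter-Glo luminescence and converted to % inhibition against max and blank wells. IC50 came from curve fitting.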

For another assay, the target named is T1, KRAS G12V-cRAF (Homo sapiens, UniProt P01116, G12V).
T1 construct: expressed in transfected cells
T1 sequence (P01116 1-188 isoform P01116-2 G12V): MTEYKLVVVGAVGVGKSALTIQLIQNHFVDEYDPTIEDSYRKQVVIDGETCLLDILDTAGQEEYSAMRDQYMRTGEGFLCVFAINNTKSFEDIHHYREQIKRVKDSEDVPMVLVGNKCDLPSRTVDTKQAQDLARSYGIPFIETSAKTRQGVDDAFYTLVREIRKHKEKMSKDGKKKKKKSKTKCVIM
The assay is described as follows: Cellular KRAS G12V-cRAF Binding Inhibition Assay (NanoBRET, AD293 stable cells). As to conditions: 3 h incubation, read-out: NanoBRET KRAS G12V. The gist of the method: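 Live AD293 stable cells, NanoLuc donor with HaloTag NanoBRET 618 ligand acceptor added overnight. Inhibition percent from luminescence relative to max signal and medium blank; IC50 from curve fitting.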
For orientation: In BRET a luciferase serves as donor, and the signal depends on an acceptor being close.

Assay [2] relates to KRAS-G12V mutant tumor cells SW620. The assay is described as follows: Cell Proliferation Inhibition Assay (SW620), Cell-titer GLO, 96 h. Conditions: Homo sapiens, SW-620, 96 h, read-out: SW620(G12V). The gist of the method: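 SW620 cells (1×10^3/well, low-attachment) were exposed to compound from 10000 to 0.03 nM (0.5% DMSO) for 96 h at 37°C. Viability was read by Cell-titer GLO luminescence. Inhibition was calculated relative to DMSO and blank wells, and IC50 obtained by curve fitting.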

The target of a further assay is T2, KRAS G12D-cRAF (Homo sapiens, UniProt P01116, G12D).
T2 construct: expressed in transfected cells
T2 sequence (P01116 1-188 isoform P01116-2 G12D): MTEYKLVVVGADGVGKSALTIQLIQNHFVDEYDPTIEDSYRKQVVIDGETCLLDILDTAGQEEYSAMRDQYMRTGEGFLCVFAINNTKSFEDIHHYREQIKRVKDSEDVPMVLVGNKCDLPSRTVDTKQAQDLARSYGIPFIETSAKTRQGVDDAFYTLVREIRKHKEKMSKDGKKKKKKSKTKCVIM
The assay is described as follows: Cellular KRAS G12D-cRAF Binding Inhibition Assay (NanoBRET, AD293 stable cells). Conditions: 3 h incubation, read-out: NanoBRET KRAS G12D. The gist of the method:
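AD293 cells stably expressing KRAS G12D-NanoLuc and cRAF RBD-HaloTag were seeded at 1×10^4 cells/well with NanoBRET 618 ligand overnight. BRET signal was converted to % inhibition of binding relative to max and blank wells, and IC50 came from curve fitting.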

Setting [3] is: AGS cells, 96 h incubation, Cell-titer GLO.
The mark [4] stands for this setting: SW620 cells, 96 h incubation, Cell-titer GLO.

Take `CC1OCCCn2c(c3c4cc(ccc42)-c2csc(n2)CC(NC(=O)C2CC2C(F)F)C(=O)N2CCCC(N2)C(=O)OCC(C)(C)C3)-c2cc(N3CCN(C4CCN(C)CC4)CC3)cnc21` [Example 104, (1S,2S)-2-(difluoromethyl)-N-((1^5S,6^3S,4S,Z)-1^5,10,10-trimethyl-1^2-(4-(1-methylpiperidin-4-yl)piperazin-1-yl)-5,7-dioxo-1^8,1^9,6^1,6^2,6^3,6^4,6^5,6^6-octahydro-1^5H,1^7H-8-oxa-1(13,15)-pyrido[3',2': 7,8][1,5]oxazonino[5,6-a]indola-2(4,2)-thiazola-6(1,3)-pyridazinacycloundecaphane-4-yl)cyclop ropane-1-carboxamide]: the IC50 turned out to be 0.63 nM in assay [1] (setting [3]), 11.8 nM on KRAS G12V-cRAF, 0.2 nM in assay [2] (setting [4]) and 3.2 nM on KRAS G12D-cRAF.
As to `CC1OCCCn2c(c3c4cc(ccc42)-c2csc(n2)CC(NC(=O)C2CC2C(F)F)C(=O)N2CCCC(N2)C(=O)OCC(C)(C)C3)-c2cc(N3CCC(N(C)C)CC3)cnc21` [Example 105, (1S,2S)-2-(difluoromethyl)-N-((1^5S,6^3S,4S,Z)-1^2-(4-(dimethylamino)piperidin-1-yl)-1^5,10,10-trimethyl-5,7-dioxo-1^8,1^9,6^1,6^2,6^3,6^4,6^5,6^6-octahydro-1^5H,1^7H-8-oxa-1(13,15)-pyrido[3',2':7,8][1,5]oxazonino[5,6-a]indola-2(4,2)-thiazola-6(1,3)-pyridazinacycloundecaphane-4-yl)cyclopropane-1-carboxamide], the IC50 is 0.69 nM in assay [1] (setting [3]), 16.6 nM at KRAS G12V-cRAF, 0.24 nM in assay [2] (setting [4]) and 4.55 nM at KRAS G12D-cRAF.
The matching figures for `CC1OCCCn2c(c3c4cc(ccc42)-c2csc(n2)CC(NC(=O)C2CC2C(F)F)C(=O)N2CCCC(N2)C(=O)OCC(C)(C)C3)-c2cc(N3CCC(N4CCOCC4)CC3)cnc21` [Example 106, (1S,2S)-2-(difluoromethyl)-N-((1^5S,6^3S,4S,Z)-1^5,10,10-trimethyl-1^2-(4-morpholinopiperidin-1-yl)-5,7-dioxo-1^8,1^9,6^1,6^2,6^3,6^4,6^5,6^6-octahydro-1^5H,1^7H-8-oxa-1(13,15)-pyrido[3',2':7,8][1,5]oxazonino[5,6-a]indola-2(4,2)-thiazola-6(1,3)-pyridazinacycloundecaphane-4-yl)cyclopropane-1-carb oxamide]: 0.86 nM, 27.4 nM, 0.24 nM and 6.39 nM.
`CC1OCCCn2c(c3c4cc(ccc42)-c2csc(n2)CC(NC(=O)C2CC2C(F)F)C(=O)N2CCCC(N2)C(=O)OCC(C)(C)C3)-c2cc(N3CCN(C4CN(C)C4)CC3)cnc21` [Example 108, (1S,2S)-2-(difluoromethyl)-N-((1^5S,6^3S,4S,Z)-1^5,10,10-trimethyl-1^2-(4-(1-methylazetidin-3-yl)piperazin-1-yl)-5,7-dioxo-1^8, 1^9,6^1,6^2,6^3,6^4,6^5 ,6^6-octahydro-1^5H,1^7H-8-oxa-1(13,15)-pyrido[3',2':7,8][1,5]oxazonino[5,6-a]indola-2(4,2)-thiazola-6(1,3)-pyridazinacycloundecaphane-4-yl)cycloprop ane-1-carboxamide]: the IC50 in assay [1] came out at 0.58 nM; on KRAS G12V-cRAF, 37.9 nM; in assay [2] it was 0.28 nM; at KRAS G12D-cRAF it was 6.1 nM.
For `CC1OCCCn2c(c3c4cc(ccc42)-c2csc(n2)CC(NC(=O)C2CC2C(F)F)C(=O)N2CCCC(N2)C(=O)OCC(C)(C)C3)-c2cc(N3CCN(C4CCOCC4)CC3)cnc21` [Example 109, (1S,2S)-2-(difluoromethyl)-N-((1^5S,6^3S,4S,Z)-1^5,10,10-trimethyl-5,7-dioxo-1^2-(4-(tetrahydro-2H -pyran-4-yl)piperazin-1-yl)-18, 1^9,6^1,6^2,6^3 ,6^4,6^5,6^6-octahydro-1^5H,1^7H-8-oxa-1(13,15)-pyrido[3',2' :7,8][1,5]oxazonino[5,6-a]indola-2(4,2)-thiazola-6(1,3)-pyridazinacycloundecaphane-4-yl)cyclo propane-1-carboxamide], the IC50 in assay [1] (setting [3]) came to 1.02 nM; on KRAS G12V-cRAF it was 14.9 nM; in assay [2] (setting [4]) it was 0.2 nM; at KRAS G12D-cRAF it was 6.2 nM.
The matching figures for `CC1OCCCn2c(c3c4cc(ccc42)-c2csc(n2)CC(NC(=O)C2CC2C(F)F)C(=O)N2CCCC(N2)C(=O)OCC(C)(C)C3)-c2cc(N3CCN4CCOCC4C3)cnc21` [Example 110, (1S,2S)-2-(difluoromethyl)-N-((1^5S,6^3S,4S,Z)-1^2-((S)-hexahydropyrazino[2,1-c][1,4]oxazin-8(1 H)-yl)-1^5,10,10-trimethyl-5,7-dioxo-1^8,1^9,6^1,6^2,6^3,6^4,6^5,6^6-octahydro-1^5H,1^7H-8-oxa-1(13,15)-pyrido[3',2':7,8][1,5]oxazonino[5,6-a]indola-2(4,2)-thiazola-6(1,3)-pyridazinacycloundecaphane-4-yl)cyclopropane-1-carboxamide]: 1.12 nM, 14 nM, 0.15 nM and 4.17 nM.
As for `CC1OCCCn2c(c3c4cc(ccc42)-c2csc(n2)CC(NC(=O)C2CC2C(F)F)C(=O)N2CCCC(N2)C(=O)OCC(C)(C)C3)-c2cc(N3CCNCC3)cnc21` [Example 112, (1S,2S)-2-(difluoromethyl)-N-((1^5S,6^3S,4S,Z)-1^5,10,10-trimethyl-5,7-dioxo-1^2-(piperazin-1-yl)-1 ^8,1^9,6^1,6^2,6^3,6^4,6^5,6^6-octahydro-1^5H,1^7H-8-oxa-1(13,15)-pyrido[3',2':7,8][1,5]oxazonino[5,6-a]indola-2(4,2)-thiazola-6(1,3)-pyridazinacycloundecaphane-4-yl)cyclopropane-1-carboxamide], the IC50 in assay [1] (setting [3]) was 2.68 nM; on KRAS G12V-cRAF, 34.2 nM; in assay [2] (setting [4]), 0.34 nM; on KRAS G12D-cRAF it was 8.39 nM.
For the compound `COC1CCN(c2cnc3c(c2)-c2c4c5cc(ccc5n2CCCOC3C)-c2csc(n2)CC(NC(=O)C2CC2C(F)F)C(=O)N2CCCC(N2)C(=O)OCC(C)(C)C4)CC1` [Example 113, (1S,2S)-2-(difluoromethyl)-N-((1^5S,6^3S,4S,Z)-1^2-(4-methoxypiperidin-1-yl)-1^5,10,10-trimethyl-5,7-dioxo-1^8,1^9,6^1,6^2,6^3,6^4,6^5,6^6-octahydro-1^5H, 1^7H-8-oxa-1(13,15)-pyrido[3',2':7,8][1,5]oxazonino[5,6-alindola-2(4,2)-thiazola-6(1,3)-pyridazinacycloundecaphane-4-yl)cyclopropane-1-carbox amide], the IC50 in assay [1] (setting [3]) worked out at 3.6 nM; on KRAS G12V-cRAF, 23.9 nM; in assay [2] (setting [4]), 0.54 nM; at KRAS G12D-cRAF it was 7.1 nM.
`CC1OCCCn2c(c3c4cc(ccc42)-c2csc(n2)CC(NC(=O)C2CC2C(F)F)C(=O)N2CCCC(N2)C(=O)OCC(C)(C)C3)-c2cc(N3CCC(F)(F)CC3)cnc21` [Example 114, (1S,2S)-2-(difluoromethyl)-N-((1^5S,6^3S,4S,Z)-1^2-(4,4-difluoropiperidin-1-yl)-1^5,10,10-trimethyl-5,7-dioxo-1^8,1^9,6^1,6^2,6^3,6^4,6^5,6^6-octahydro-1^5H, 1^7H-8-oxa-1(13,15)-pyrido[3',2':7,8][1,5]oxazonino[5,6-alindola-2(4,2)-thiazola-6(1,3)-pyridazinacycloundecaphane-4-yl)cyclopropane-1-carbox amide]: the IC50 came to 15.7 nM in assay [1] (setting [3]), 65.8 nM on KRAS G12V-cRAF, 3.4 nM in assay [2] (setting [4]) and 19.4 nM on KRAS G12D-cRAF.
Take `CC1OCCCn2c(c3c4cc(ccc42)-c2csc(n2)CC(NC(=O)C2CC2C(F)F)C(=O)N2CCCC(N2)C(=O)OCC(C)(C)C3)-c2cc(N3CC(N4CCOCC4)C3)cnc21` [Example 115, (1S,2S)-2-(difluoromethyl)-N-((1^5S,6^3S,4S,Z)-1^5,10,10-trimethyl-1^2-(3-morpholinoazetidin-1-yl) -5,7-dioxo-1^8,1^9,6^1,6^2,6^3,6^4,6^5,6^6-octahydro-1^5H,1^7H-8-oxa-1(13,15)-pyrido[3',2':7,8][1,5]oxazonino[5,6-a]indola-2(4,2)-thiazola-6(1,3)-pyridazinacycloundecaphane-4-yl)cyclopropane-1-carbox amide]: the IC50 worked out at 1.72 nM in assay [1] (setting [3]), 16.3 nM at KRAS G12V-cRAF, 0.9 nM in assay [2] (setting [4]) and 4.28 nM at KRAS G12D-cRAF.
For the compound `CC1OCCCn2c(c3c4cc(ccc42)-c2csc(n2)CC(NC(=O)C24CC(C)(C2)C4)C(=O)N2CCCC(N2)C(=O)OCC(C)(C)C3)-c2cc(N3CCOCC3)cnc21` (centres unmarked) [Example 116, 3-methyl-N-((1^5S6^3S4S,Z)-1^5,10,10-trimethyl-1^2-morpholino-5,7-dioxo-1^8,1^9,6^1,6^2,6^3,6^4,6^5,6^6-octahydro-1^5H,1^7H-8-oxa-1(13,15)-pyrido[3',2':7,8][1,5]oxazonino[5,6-a]indola-2(4,2)-thiazola-6 (1,3)-pyridazinacycloundecaphane-4-yl)bicyclo[1.1.1]pentane-1-carboxamide], the IC50 in assay [1] (setting [3]) stood at 8.27 nM; at KRAS G12V-cRAF, 37.8 nM; in assay [2] (setting [4]) it was 4.1 nM; on KRAS G12D-cRAF, 9.57 nM.

For the origin of these results see patent EP4800018A1, “PAN-KRAS INHIBITOR AND USE THEREOF IN MEDICINES” (Betta Pharmaceuticals Co., Ltd., priority 2023, dated 2025).
